Columns and labels:
Format in all cases: functional
[1] = test system: Mycobacterium tuberculosis; assay: Downregulation of p55 gene expression Mycobacterium tuberculosis by microarray
[2] = test system: Mycobacterium tuberculosis; assay: Downregulation of p27 gene expression Mycobacterium tuberculosis by microarray
[3] = test system: Mycobacterium tuberculosis; assay: Upregulation of p55 gene expression Mycobacterium tuberculosis by microarray
[4] = test system: Mycobacterium tuberculosis; assay: Upregulation of p27 gene expression in Mycobacterium tuberculosis by microarray

Measured: fold change (FC)

CN(C)CCCN1c2ccccc2Sc2ccc(Cl)cc21 [CHLORPROMAZINE]
>=2: all assays above

CC(C)/N=c1\cc2n(-c3ccc(Cl)cc3)c3ccccc3nc-2cc1Nc1ccc(Cl)cc1 [CLOFAZIMINE]
>=2: all assays above

CC1=CC(=O)c2ccccc2C1=O [MENADIONE]
>=2: all assays above

CO[C@@H]1[C@@H](OC(N)=O)[C@@H](O)[C@H](Oc2ccc3c(O)c(NC(=O)c4ccc(O)c(CC=C(C)C)c4)c(=O)oc3c2C)OC1(C)C [NOVOBIOCIN]
>=2: all assays above

O=[N+]([O-])c1cn2c(n1)OC[C@@H](OCc1ccc(OC(F)(F)F)cc1)C2 [PRETOMANID]
>=2: all assays above

CSc1ccc2c(c1)N(CCC1CCCCN1C)c1ccccc1S2 (configuration not stated) [THIORIDAZINE]
>=2: all assays above

Oc1cc(Cl)ccc1Oc1ccc(Cl)cc1Cl [TRICLOSAN]
>=2: all assays above

CC(C)[C@@H]1NC(=O)[C@H](C)OC(=O)[C@@H](C(C)C)NC(=O)[C@@H](C(C)C)OC(=O)[C@H](C(C)C)NC(=O)[C@H](C)OC(=O)[C@@H](C(C)C)NC(=O)[C@@H](C(C)C)OC(=O)[C@H](C(C)C)NC(=O)[C@H](C)OC(=O)[C@@H](C(C)C)NC(=O)[C@@H](C(C)C)OC1=O [VALINOMYCIN]
>=2: all assays above
